Test results: PubChem BioAssay (NCI)
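A five-concentration, 48-hour dose response in 96-well plates underlies each endpoint, interpolated linearly between surrounding concentrations. GI50: concentration for 50% inhibition of growth. At the TGI there is no net growth.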

Experiments:
Test in all cases: DTP human tumour cell line panel, 48 h
[1] = test system: UO-31 renal
[2] = test system: NCI-H23 lung
[3] = test system: HCT-116 colon
[4] = test system: PC-3 prostate
[5] = test system: UACC-257 melanoma
[6] = test system: HL-60(TB) leukemia
[7] = test system: T-47D breast
[8] = test system: OVCAR-8 ovarian
[9] = test system: SNB-75 CNS
[10] = test system: K-562 leukemia
[11] = test system: 786-0 renal
[12] = test system: U251 CNS
[13] = test system: MOLT-4 leukemia
[14] = test system: A498 renal
[15] = test system: NCI/ADR-RES ovarian
[16] = test system: HOP-62 NSCLC
[17] = test system: MCF7 breast
[18] = test system: ACHN renal
[19] = test system: UACC-62 melanoma
[20] = test system: BT-549 breast
[21] = test system: TK-10 renal
[22] = test system: RXF 393 renal
[23] = test system: LOX IMVI melanoma
[24] = test system: SF-295 CNS
[25] = test system: CCRF-CEM leukemia
[26] = test system: SF-268 CNS
[27] = test system: SK-OV-3 ovarian
[28] = test system: CAKI-1 renal
[29] = test system: A549 NSCLC
[30] = test system: OVCAR-5 ovarian
[31] = test system: HS 578T breast
[32] = test system: IGROV1 ovarian
[33] = test system: NCI-H460 lung
[34] = test system: SK-MEL-5 melanoma
[35] = test system: HOP-92 NSCLC
[36] = test system: M14 melanoma
[37] = test system: HCC-2998 colon
[38] = test system: SN12C renal
[39] = test system: SK-MEL-28 melanoma
[40] = test system: COLO 205 colon
[41] = test system: HT29 colon
[42] = test system: SNB-19 CNS
[43] = test system: SF-539 CNS
[44] = test system: SR leukemia
[45] = test system: HCT-15 colon
[46] = test system: OVCAR-4 ovarian
[47] = test system: DU-145 prostate
[48] = test system: SK-MEL-2 melanoma
[49] = test system: NCI-H522 lung
[50] = test system: SW-620 colon
[51] = test system: EKVX NSCLC
[52] = test system: KM12 colon
[53] = test system: RPMI-8226 leukemia
[54] = test system: MALME-3M melanoma
[55] = test system: MDA-MB-231 breast
[56] = test system: OVCAR-3 ovarian
[57] = test system: MDA-MB-435
[58] = test system: NCI-H226 lung

## C[C@@H](NC(=O)[C@@H](CC(=O)N1CCC(N2CCCCC2)CC1)N1C(=O)[C@@H](N2C(=O)OC[C@@H]2c2ccccc2)[C@H]1/C=C/c1cccc(Cl)c1)c1ccccc1
[1]
  GI50: 2.03 µM
  TGI: 5.35 µM
[2]
  GI50: 3.85 µM
  TGI: 15.5 µM
[3]
  GI50: 1.97 µM
  TGI: 4.11 µM
[4]
  GI50: 5.37 µM
  TGI: 18.9 µM
[5]
  GI50: 1.93 µM
  TGI: 3.84 µM
[6]
  GI50: 2.21 µM
  TGI: 4.87 µM
[7]
  GI50: 1.9 µM
  TGI: 4.33 µM
[8]
  GI50: 4.3 µM
  TGI: 16.6 µM
[9]
  GI50: 1.71 µM
  TGI: 4.09 µM
[10]
  GI50: 2.63 µM
  TGI: 5.47 µM
[11]
  GI50: 1.88 µM
  TGI: 3.95 µM
[12]
  GI50: 2.03 µM
  TGI: 4.06 µM
[13]
  GI50: 3.2 µM
  TGI: 10.7 µM
[14]
  GI50: 13.2 µM
  TGI: 27.7 µM
[15]
  GI50: 5.92 µM
  TGI: 24.8 µM
[16]
  GI50: 4.16 µM
  TGI: 18.4 µM
[17]
  GI50: 2.04 µM
  TGI: 5.36 µM
[18]
  GI50: 2.31 µM
  TGI: 6.22 µM
[19]
  GI50: 1.95 µM
  TGI: 3.88 µM
[20]
  GI50: 5.14 µM
  TGI: 18 µM
[21]
  GI50: 1.92 µM
  TGI: 4.76 µM
[22]
  GI50: 2.15 µM
  TGI: 3.98 µM
[23]
  GI50: 1.46 µM
  TGI: 3.06 µM
[24]
  GI50: 1.84 µM
  TGI: 3.91 µM
[25]
  GI50: 2.73 µM
  TGI: 7.93 µM
[26]
  GI50: 2.31 µM
  TGI: 7.21 µM
[27]
  GI50: 12.9 µM
  TGI: 27.5 µM
[28]
  GI50: 1.89 µM
  TGI: 4.17 µM
[29]
  GI50: 4.34 µM
  TGI: 15.6 µM
[30]
  GI50: 5.78 µM
  TGI: 20.9 µM
[31]
  GI50: 2.77 µM
  TGI: 7.16 µM
[32]
  GI50: 4.62 µM
  TGI: 19.2 µM
[33]
  GI50: 2.02 µM
  TGI: 3.95 µM
[34]
  GI50: 1.85 µM
  TGI: 3.34 µM
[35]
  GI50: 3.64 µM
  TGI: 16.8 µM
[36]
  GI50: 1.75 µM
  TGI: 3.37 µM
[37]
  GI50: 1.99 µM
  TGI: 4.08 µM
[38]
  GI50: 2.9 µM
  TGI: 8.85 µM
[39]
  GI50: 1.8 µM
  TGI: 3.63 µM
[40]
  GI50: 1.8 µM
  TGI: 4.24 µM
[41]
  GI50: 2.78 µM
  TGI: 7.95 µM
[42]
  GI50: 2.77 µM
  TGI: 7.57 µM
[43]
  GI50: 1.76 µM
  TGI: 3.38 µM
[44]
  GI50: 2.61 µM
  TGI: 7.78 µM
[45]
  GI50: 2.56 µM
  TGI: 7.74 µM
[46]
  GI50: 10.5 µM
  TGI: 24.8 µM
[47]
  GI50: 4.03 µM
  TGI: 14.3 µM
[48]
  GI50: 2.25 µM
  TGI: 5.36 µM
[49]
  GI50: 1.79 µM
  TGI: 4.14 µM
[50]
  GI50: 2.06 µM
  TGI: 4.7 µM
[51]
  GI50: 3.79 µM
  TGI: 18 µM
[52]
  GI50: 2.72 µM
  TGI: 9.63 µM
[53]
  GI50: 2.93 µM
  TGI: 8.32 µM
[54]
  GI50: 1.68 µM
  TGI: 3.3 µM
[55]
  GI50: 1.9 µM
  TGI: 3.87 µM
[56]
  GI50: 1.99 µM
  TGI: 4.49 µM
[57]
  GI50: 1.64 µM
  TGI: 3.17 µM
[58]
  GI50: 14.8 µM
  TGI: 31.2 µM
